Counter-ions that a name gives are not always drawn.
Key:
[1] = tested on: GTL16 cells; test: 96-well XTT cell survival assay (GTL16 cells); assay type: cell-based
Description: GTL16 cells were maintained in DMEM Medium supplemented with 10% fetal bovine serum (FBS) 2 mM L-Glutamine and 100 units penicillin/100 μg streptomycin, at 37° C. in 5% CO2.
Compounds were tested in the following assays in duplicate.
96-well XTT assay (GTL16 cells): One day prior to assay the growth media was aspirated off and assay media was added to cells. On the day of the assay, the cells were grown in assay media containing various concentrations of compounds (duplicates) on a 96-well flat bottom plate for 72 hours at 37° C. in 5% CO2. The starting cell number was 5000 cells per well and volume was 120 μl. At the end of the 72-hour incubation, 40 μl of XTT labeling mixture (50:1 solution of sodium 3′-[1-(phenylaminocarbonyl)-3,4-tetrazolium]-bis (4-methoxy-6-nitro) benzene sulfonic acid hydrate and Electron-coupling reagent: PMS (N-methyl dibenzopyrazine methyl sulfate) were added to each well of the plate. After an additional 5 hours of incubation at 37° C., the absorbance reading at 450 nm with a background correction of 650 nm was measured with a spectrophotometer.

[2] = molecular target: c-MET (Homo sapiens, UniProt P08581); test: MET luminescence-based enzyme assay (Kinase-Glo); assay type: biochemical
Chain of c-MET (P08581 1078-1345 limits assumed): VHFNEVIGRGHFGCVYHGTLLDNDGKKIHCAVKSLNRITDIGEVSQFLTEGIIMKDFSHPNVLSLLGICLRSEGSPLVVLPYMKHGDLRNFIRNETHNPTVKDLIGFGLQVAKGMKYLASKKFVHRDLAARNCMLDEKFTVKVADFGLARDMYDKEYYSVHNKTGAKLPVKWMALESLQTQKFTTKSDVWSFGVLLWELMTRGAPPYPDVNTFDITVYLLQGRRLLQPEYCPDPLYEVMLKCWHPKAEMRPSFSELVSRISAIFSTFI
Description: The subscript designates positive or negative controls. The Z′ score for a robust screening assay should be ≧0.50. The typical threshold=μ+−3*σ+. Any value that falls below the threshold was designated a “hit”.
MET Luminescence-Based Enzyme Assay
MET kinase (see below), Kinase-Glo™ (Promega Cat#V6712).
Negative controls contained 10 μM staurosporine.

Compound | IC50 ([1]; Homo sapiens, GTL 16, 72 hours) | IC50 [2] | IC50 ([1]; 72 hours)
c1cnc2ccc(Sc3nnc4ccc(-c5cn[nH]c5)nn34)cc2c1 [Compound 39, 6-[6-(1H-Pyrazol-4-yl)-[1,2,4]triazolo[4,3-b]pyridazin-3-ylsulfanyl]-quinoline] | 100 to 1000 nM | < 100 nM | –
Fc1cccc(-c2ccc3nnc(Sc4ccc5ncccc5c4)n3n2)c1 [Compound 5, 6-[6-(3-Fluoro-phenyl)-[1,2,4]triazolo[4,3-b]pyridazin-3-ylsulfanyl]-quinoline] | ≤ 100 nM | < 100 nM | –
Cc1ccc2nnc(Sc3ccc4ncc(-c5cnn(C(C)(C)C(=O)O)c5)cc4c3)n2n1 [Compound 45, 2-Methyl-2-{4-[6-(6-methyl-[1,2,4]triazolo[4,3-b]pyridazin-3-ylsulfanyl)-quinolin-3-yl]-pyrazol-1-yl}-propionic acid] | 1000 to 10000 nM | < 100 nM | –
Methyl-{3-[4-(4-methyl-4H-[1,2,4]triazol-3-ylsulfanyl)-quinolin-6-ylsulfanyl]-[1,2,4]triazolo[4,3-b]pyridazin-6-yl}-amine (A), Methyl-{3-[6-(4-methyl-4H-[1,2,4]triazol-3-ylsulfanyl)-quinolin-4-ylsulfanyl]-[1,2,4]triazolo[4,3-b]pyridazin-6-yl}-amine (B) [Compound 47] | – | 1000 to 10000 nM | –
CCN1CC(n2cc(-c3cnc4ccc(Sc5nnc6ccc(C)nn56)cc4c3)cn2)C1 [Compound 61, 3-[1-(1-Ethyl-azetidin-3-yl)-1H-pyrazol-4-yl]-6-(6-methyl-[1,2,4]triazolo[4,3-b]pyridazin-3-ylsulfanyl)-quinoline] | ≤ 100 nM | < 100 nM | –
Cc1ccc2nnc(Sc3ccc4nccc(Sc5nncn5C)c4c3)n2n1 [Compound 57, 6-(6-Methyl-[1,2,4]triazolo[4,3-b]pyridazin-3-ylsulfanyl)-4-(4-methyl-4H-[1,2,4]triazol-3-ylsulfanyl)-quinoline] | – | > 10000 nM | –
Cc1ccc2nnc(Sc3ccc4ncc(-c5cnn(C6CN(C(=O)OC(C)(C)C)C6)c5)cc4c3)n2n1 [Compound 64, 3-{4-[6-(6-Methyl-[1,2,4]triazolo[4,3-b]pyridazin-3-ylsulfanyl)-quinolin-3-yl]-pyrazol-1-yl}-azetidine-1-carboxylic acid tert-butyl ester] | ≤ 100 nM | < 100 nM | –
Cn1cc(-c2ccc3nnc(Sc4ccc5ncc(NC(=O)OC(C)(C)C)cc5c4)n3n2)cn1 [Compound 35, {6-[6-(1-Methyl-1H-pyrazol-4-yl)-[1,2,4]triazolo[4,3-b]pyridazin-3-ylsulfanyl]-quinolin-3-yl}-carbamic acid tert-butyl ester] | ≤ 100 nM | < 100 nM | –
Cn1cc(-c2ccc3nnc(Sc4ccc5nccc(NC(=O)OC(C)(C)C)c5c4)n3n2)cn1 [Compound 36, {6-[6-(1-Methyl-1H-pyrazol-4-yl)-[1,2,4]triazolo[4,3-b]pyridazin-3-ylsulfanyl]-quinolin-4-yl}-carbamic acid tert-butyl ester] | – | 1000 to 10000 nM | –
(2:1) mixture of 3-(7-Methyl-benzothiazol-6-ylsulfanyl)-6-(1-methyl-1H-pyrazol-4-yl)-[1,2,4]triazolo[4,3-b]pyridazine and 3-(5-Methyl-benzothiazol-6-ylsulfanyl)-6-(1-methyl-1H-pyrazol-4-yl)-[1,2,4]triazolo[4,3-b]pyridazine [Compound 8] | – | < 100 nM | ≤ 100 nM
Cc1ccc2nnc(Sc3cc4cc(-c5cnn(C)c5)cnc4cc3F)n2n1 [Compound 52, 7-Fluoro-3-(1-methyl-1H-pyrazol-4-yl)-6-(6-methyl-[1,2,4]triazolo[4,3-b]pyridazin-3-ylsulfanyl)-quinoline] | ≤ 100 nM | < 100 nM | –
Cc1cnc2ccc(Sc3nnc4ccc(C)nn34)cc2c1 [Compound 54, 3-Methyl-6-(6-methyl-[1,2,4]triazolo[4,3-b]pyridazin-3-ylsulfanyl)-quinoline] | – | 100 to 1000 nM | –
CCc1ccnc2ccc(Sc3nnc4ccc(-c5cnn(C)c5)nn34)cc12 [Compound 60, 4-Ethyl-6-[6-(1-methyl-1H-pyrazol-4-yl)-[1,2,4]triazolo[4,3-b]pyridazin-3-ylsulfanyl]-quinoline] | ≤ 100 nM | < 100 nM | –
CCc1ccc2nnc(Sc3ccc4ncc(-c5cnn(C)c5)cc4c3)n2n1 [Compound 58, 6-(6-Ethyl-[1,2,4]triazolo[4,3-b]pyridazin-3-ylsulfanyl)-3-(1-methyl-1H-pyrazol-4-yl)-quinoline] | ≤ 100 nM | < 100 nM | –
Cc1cc2cc(Sc3nnc4ccc(-c5cnn(C)c5)nn34)ccc2nc1N [Compound 24, 3-Methyl-6-[6-(1-methyl-1H-pyrazol-4-yl)-[1,2,4]triazolo[4,3-b]pyridazin-3-ylsulfanyl]-quinolin-2-ylamine] | – | 100 to 1000 nM | –
CCc1ccc2nnc(Sc3ccc4ncc(-c5cnn(C6CN(CC)C6)c5)cc4c3)n2n1 [Compound 70, 3-[1-(1-Ethyl-azetidin-3-yl)-1H-pyrazol-4-yl]-6-(6-ethyl-[1,2,4]triazolo[4,3-b]pyridazin-3-ylsulfanyl)-quinoline] | ≤ 100 nM | < 100 nM | –

Compound | IC50 ([1]; Homo sapiens, GTL 16, 72 hours) | IC50 [2] | IC50 ([1]; 72 hours)
CNC(=O)c1ccc(-c2ccc3nnc(Sc4ccc5ncccc5c4)n3n2)cc1F [Compound 11, 2-Fluoro-N-methyl-4-[3-(quinolin-6-ylsulfanyl)-[1,2,4]triazolo[4,3-b]pyridazin-6-yl]-benzamide] | 100 to 1000 nM | < 100 nM | –
Cn1cc(-c2ccc3nnc(Sc4ccc5ncccc5c4F)n3n2)cn1 [Compound 55, 5-Fluoro-6-[6-(1-methyl-1H-pyrazol-4-yl)-[1,2,4]triazolo[4,3-b]pyridazin-3-ylsulfanyl]-quinoline] | ≤ 100 nM | < 100 nM | –
Cn1cc(-c2ccc3nnc(Sc4ccc5ncccc5c4[N+](=O)[O-])n3n2)cn1 [Compound 13, 6-[6-(1-Methyl-1H-pyrazol-4-yl)-[1,2,4]triazolo[4,3-b]pyridazin-3-ylsulfanyl]-5-nitro-quinoline] | 100 to 1000 nM | 100 to 1000 nM | –
Cn1cc(-c2ccc3nnc(Sc4ccc5ncsc5c4)n3n2)cn1 [Compound 14, 3-(Benzothiazol-6-ylsulfanyl)-6-(1-methyl-1H-pyrazol-4-yl)-[1,2,4]triazolo[4,3-b]pyridazine] | ≤ 100 nM | < 100 nM | –
Cc1ccc2nnc(Sc3c[nH]c4ncc(-c5cnn(C)c5)cc34)n2n1 [Compound 53, 6-Methyl-3-[5-(1-methyl-1H-pyrazol-4-yl)-1H-pyrrolo[2,3-b]pyridin-3-ylsulfanyl]-[1,2,4]triazolo[4,3-b]pyridazine] | 100 to 1000 nM | < 100 nM | –
CN(C)CCn1cnc2ccc(Sc3nnc4ccc(-c5cnn(C)c5)nn34)cc21 [Compound 32, Dimethyl-(2-{6-[6-(1-methyl-1H-pyrazol-4-yl)-[1,2,4]triazolo[4,3-b]pyridazin-3-ylsulfanyl]-benzoimidazol-1-yl}-ethyl)-amine, formic acid salt] | 1000 to 10000 nM | 100 to 1000 nM | –
CN(C)c1ccnc2ccc(Sc3nnc4ccc(-c5cnn(C)c5)nn34)cc12 [Compound 29, Dimethyl-{6-[6-(1-methyl-1H-pyrazol-4-yl)-[1,2,4]triazolo[4,3-b]pyridazin-3-ylsulfanyl]-quinolin-4-yl}-amine] | – | 100 to 1000 nM | –
Cc1ccc2nnc(Sc3ccc4ncccc4c3)n2n1 [Compound 37, 6-(6-Methyl-[1,2,4]triazolo[4,3-b]pyridazin-3-ylsulfanyl)-quinoline] | – | 100 to 1000 nM | –
CNc1ccnc2ccc(Sc3nnc4ccc(-c5cnn(C)c5)nn34)cc12 [Compound 28, Methyl-{6-[6-(1-methyl-1H-pyrazol-4-yl)-[1,2,4]triazolo[4,3-b]pyridazin-3-ylsulfanyl]-quinolin-4-yl}-amine] | – | 1000 to 10000 nM | –
CNc1ccc2nnc(Sc3ccc4ncccc4c3-c3cnn(C)c3)n2n1 [Compound 49, Methyl-{3-[5-(1-methyl-1H-pyrazol-4-yl)-quinolin-6-ylsulfanyl]-[1,2,4]triazolo[4,3-b]pyridazin-6-yl}-amine] | – | > 10000 nM | –
CNc1ccc2nnc(Sc3ccc4nccc(Sc5nnc6ccc(NC)nn56)c4c3)n2n1 [Compound 48, 4,6-{6-Methylamino-[1,2,4]triazolo[4,3-b]pyridazin-3-ylsulfanyl}-quinoline] | – | > 10000 nM | –
Cn1cc(-c2ccc3nnc(Sc4ccc5c(ccc[n+]5[O-])c4)n3n2)cn1 [Compound 27, 6-[6-(1-Methyl-1H-pyrazol-4-yl)-[1,2,4]triazolo[4,3-b]pyridazin-3-ylsulfanyl]-quinoline, N-oxide] | – | 1000 to 10000 nM | –
Cc1ccc2nnc(Sc3ccc4ncc(Br)cc4c3)n2n1 [Compound 43, 3-Bromo-6-(6-methyl-[1,2,4]triazolo[4,3-b]pyridazin-3-ylsulfanyl)-quinoline] | – | 100 to 1000 nM | –
Cn1cc(-c2ccc3nnc(Sc4ccc5nccc(N)c5c4)n3n2)cn1 [Compound 34, 6-[6-(1-Methyl-1H-pyrazol-4-yl)-[1,2,4]triazolo[4,3-b]pyridazin-3-ylsulfanyl]-quinolin-4-ylamine, trifluoroacetic acid salt] | – | 100 to 1000 nM | –
Cc1ccc2nnc(Sc3cc4cccnc4cc3F)n2n1 [Compound 51, 7-Fluoro-6-(6-methyl-[1,2,4]triazolo[4,3-b]pyridazin-3-ylsulfanyl)-quinoline] | – | 100 to 1000 nM | –

Source: patent US8507489B2, “Bicyclic triazoles as protein kinase modulators” (SGX Pharmaceuticals, Inc., priority 2006, dated 2013)
